# Reference: patent US8361988B2, “Nucleoside and nucleotide analogues with quaternary carbon centers and methods of use” (Institut de Recherches Cliniques de Montreal, priority 2007, dated 2013)
# Assays:
# [1] = MTT cell proliferation assay, PFSK-1; assay type: cell-based; settings: human, PFSK-1 cells, concentration causing 50% cell death of initial cell count over 24 hours, 1% DMSO
# Description: (§1) The antitumor activities of the compounds of the invention were evaluated by a cellular proliferation assay. […] The cleavage reaction form a purple formazan crystals which is largely impermeable to cell membranes resulting in its accumulation within healthy cells. Solubilisation of the cells by addition of a detergent liberates and solubilizes the formazan crystals. The number of surviving cells is directly proportional to the level of the formazan product created. The color can then be quantified spectrophotometrically. The production of purple formazan in cells treated with a compound is measured relative to the production in control cells, and dose-response curves can be generated. This assay measures the cell proliferation rate and conversely, when metabolic events lead to apoptosis or necrosis, the reduction in cell viability, thus also allowing the evaluation of the cytotoxicity of the analogues synthesized in the laboratory.
# (§2) For Tables 3 and 4, the assays were performed with 1% DMSO. The abbreviation “n.d.” means “not determined.” The values EC50, CC50, and SI have the following definitions.
# (§3) Cell growth equals total cell count without any inhibitor after 72 hours minus initial cell count.
# (§4) SI: Selectivity Index is the ratio CC50/EC50.
# [2] = test system: PFSK-1; assay: MTT cell proliferation assay, PFSK-1; assay type: cell-based; settings: Homo sapiens, PFSK-1, 72 h, concentration reducing cell growth by 50% after 72 hours, 1% DMSO
# Description: as §1, §2, §3, §4
# [3] = MTT cell proliferation assay, ZR-75-1; assay type: cell-based; settings: human, ZR-75-1 cells, concentration causing 50% cell death of initial cell count over 24 hours, 1% DMSO
# Description: (§5) The antitumor activities of the compounds of the invention were evaluated by a cellular proliferation assay. The MTT [3-(4,5-dimethylthiazol-2-yl)-2,5-diphenyltetrazolium bromide] cell proliferation assay, first described by Mosmann (Mosmann T., “Rapid colorimetric assay for cellular growth and survival: application to proliferation and cytotoxicity assays,” J. Immunol. Methods 1983 Dec. 16; 65(1-2):55-63, and incorporated by reference in its entirety) is based on the ability of active mitochondrial reductase enzymes from viable cells to cleave the tetrazolium rings of the pale yellow MTT. The cleavage reaction form a purple formazan crystals which is largely impermeable to cell membranes resulting in its accumulation within healthy cells. Solubilisation of the cells by addition of a detergent liberates and solubilizes the formazan crystals. The number of surviving cells is directly proportional to the level of the formazan product created. The color can then be quantified spectrophotometrically. The production of purple formazan in cells treated with a compound is measured relative to the production in control cells, and dose-response curves can be generated. This assay measures the cell proliferation rate and conversely, when metabolic events lead to apoptosis or necrosis, the reduction in cell viability, thus also allowing the evaluation of the cytotoxicity of the analogues synthesized in the laboratory.
# as §2
# (§6) Cell growth equals total cell count without any inhibitor after 72 hours minus initial cell count. Total cell counts after 72 hrs of growth range from 230 to 346% of initial cell counts depending on the cell line.
# (§7) Total cell counts after 24 hrs of growth range from 103 to 109% of initial cell counts depending on the cell line.
# as §4
# [4] = test system: ZR-75-1; assay: MTT cell proliferation assay, ZR-75-1; assay type: cell-based; settings: Homo sapiens, ZR-75-1, 72 h, concentration reducing cell growth by 50% after 72 hours, 1% DMSO
# Description: as §5, §2, §6, §7, §4
# [5] = biological target: T1, Drosophila melanogaster dNK (Drosophila melanogaster, UniProt Q9XZT6); assay: Phosphorylation assay (spectrophotometric coupled-enzyme), D. melanogaster dNK; assay type: biochemical; settings: substrate at 100 μM, 37° C., 1 mM ATP, triplicate
# T1 sequence (Q9XZT6 1-250): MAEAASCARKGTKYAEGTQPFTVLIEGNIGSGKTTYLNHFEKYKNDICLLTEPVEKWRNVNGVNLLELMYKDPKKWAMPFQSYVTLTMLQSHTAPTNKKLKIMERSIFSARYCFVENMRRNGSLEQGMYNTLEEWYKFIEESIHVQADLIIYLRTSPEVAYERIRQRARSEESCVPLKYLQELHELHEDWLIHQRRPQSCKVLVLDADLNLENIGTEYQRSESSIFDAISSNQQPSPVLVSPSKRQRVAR
# Description: Compounds of the invention were also tested in a phosphorylation assay using three deoxynucleoside kinases. […] The compounds were at substrate concentration of 100 μM.
# Kinetic assay. […] Briefly, the individual nucleosides at 100 μM were prepared in reaction buffer containing 50 mM Tris-HCl (pH 7.5), 0.1 M KCl, 5 mM MgCl2, 1 mM DTT, 1 mM ATP, 0.21 mM phosphoenolpyruvate, 0.18 mM NADH, and 2 units/ml pyruvate kinase and 2 units/ml lactate dehydrogenase (Roche Biochemicals, Indianapolis, Ind.). Assays were performed at 37° C. by measuring the absorbance change at 340 nm. The enzyme amount was adjusted to limit NADH turnover to 10% over the time of the experiment. All experiments were performed in triplicate.
# [6] = biological target: Thermotoga maritima thymidine kinase (Thermotoga maritima, UniProt Q9WYN2); assay: Phosphorylation assay (spectrophotometric coupled-enzyme), T. maritima TK; assay type: biochemical; settings: substrate at 100 μM, 37° C., 1 mM ATP, triplicate
# Description: Compounds of the invention were also tested in a phosphorylation assay using three deoxynucleoside kinases. The kinases include human dCK, which is responsible for the activation of numerous nucleoside analog prodrugs; Drosophila melanogaster dNK, which is the fastest known kinases with the broadest substrate specificity profile; and Thermotoga maritima thymidine kinase, which is a good surrogate for human thymidine kinase 1, a member of the distinct type II kinase subfamily. The compounds were at substrate concentration of 100 μM.
# Kinetic assay. Substrate phosphorylation was determined using a spectrophotometric coupled-enzyme assay (Munch-Petersen et al. (2000) J. Biol. Chem. vol. 275p. 66′73-66′79; Schelling et al. (2001) Anal. Biochem vol. 295 p. 82-8′7). Briefly, the individual nucleosides at 100 μM were prepared in reaction buffer containing 50 mM Tris-HCl (pH 7.5), 0.1 M KCl, 5 mM MgCl2, 1 mM DTT, 1 mM ATP, 0.21 mM phosphoenolpyruvate, 0.18 mM NADH, and 2 units/ml pyruvate kinase and 2 units/ml lactate dehydrogenase (Roche Biochemicals, Indianapolis, Ind.). Assays were performed at 37° C. by measuring the absorbance change at 340 nm. The enzyme amount was adjusted to limit NADH turnover to 10% over the time of the experiment. All experiments were performed in triplicate.
# [7] = in vitro; settings: human, MOLT-4 cells
# [8] = in vitro; settings: human, NCI H1395 cells
# [9] = in vitro; settings: human, NCI H2052 cells
# [10] = MTT cell proliferation assay, Panc 02.03; assay type: cell-based; settings: human, Panc 02.03 cells, concentration causing 50% cell death of initial cell count over 24 hours, 1% DMSO
# Description: as §1, §2, §3, §4
# [11] = test system: Panc 02.03; assay: MTT cell proliferation assay, Panc 02.03; assay type: cell-based; settings: Homo sapiens, concentration reducing cell growth by 50% after 72 hours, 1% DMSO
# Description: as §1, §2, §3, §4
# Chain of Thermotoga maritima thymidine kinase (Q9WYN2 whole entry): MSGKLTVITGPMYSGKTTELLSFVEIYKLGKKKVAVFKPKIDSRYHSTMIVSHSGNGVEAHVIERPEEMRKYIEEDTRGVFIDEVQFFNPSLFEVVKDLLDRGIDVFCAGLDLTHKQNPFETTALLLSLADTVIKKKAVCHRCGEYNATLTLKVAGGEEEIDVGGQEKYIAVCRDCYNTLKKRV
Structure (SMILES),CC50 at 24 h [1] [µM],EC50 [2] [µM],CC50 at 24 h [3] [µM],EC50 [4] [µM],D. melanogaster dNK substrate phosphorylation [5],T. maritima TK substrate phosphorylation [6],CC50 at 24 h [7] [µM],CC50 at 24 h [8] [µM],CC50 at 24 h [9] [µM],CC50 at 24 h [10] [µM],EC50 [11] [µM],D. melanogaster dNK substrate phosphorylation ([5]; listed as LCB-1009-1),T. maritima TK substrate phosphorylation ([6]; listed as LCB-1009-1),D. melanogaster dNK substrate phosphorylation ([5]; listed as LCB-1022-1),T. maritima TK substrate phosphorylation ([6]; listed as LCB-1022-1),D. melanogaster dNK substrate phosphorylation ([5]; listed as LCB-1015-1),T. maritima TK substrate phosphorylation ([6]; listed as LCB-1015-1),D. melanogaster dNK substrate phosphorylation ([5]; listed as LCB-1010-1),T. maritima TK substrate phosphorylation ([6]; listed as LCB-1010-1)
"CCOC(=O)[C@@H]1O[C@H](n2cc(C)c(=O)[nH]c2=O)CC1(C)C(=O)OCC (stereo partly drawn) [LCB-1019, (2R,5S)-diethyl 3-methyl-5-(5-methyl-2,4-dioxo-3,4-dihydropyrimidin-1(2H)-yl)tetrahydrofuran-2,3-dicarboxylate]",> 460,> 460,> 460,> 460,<0.1 10^6 μmol/min mg,6.1 10^−3 μmol/min mg,> 460,> 460,> 460,–,–,–,–,–,–,–,–,–,–
"COC(=O)C1(C)C[C@H](n2cc(C)c(=O)[nH]c2=O)O[C@@H]1CO (mixture of isomers) [LCB-1009, (±) methyl 2-(hydroxymethyl)-3-methyl-5-(5-methyl-2,4-dioxo-3,4-dihydropyrimidin-1(2H)-yl)tetrahydrofuran-3-carboxylate]",> 500,> 500,> 500,> 500,–,–,–,> 500,> 500,> 500,> 500,3.49 10^6 μmol/min mg,11.9 10^−3 μmol/min mg,–,–,–,–,–,–
"Cc1cc(=O)[nH]c(=O)n1[C@H]1CC2(C)C(=O)OC[C@H]2O1 (single isomer, unassigned) [LCB-1020, 6-Methyl-1-(3a-methyl-4-oxo-hexahydro-furo[3,4-b]furan-2-yl)-1H-pyrimidine-2,4-dione]",> 500,> 500,> 500,> 500,<0.1 10^6 μmol/min mg,<1 10^−3 μmol/min mg,> 500,> 500,> 500,–,–,–,–,–,–,–,–,–,–
"Cc1cc(=O)[nH]c(=O)n1[C@H]1CC(C)(CO)[C@@H](CO)O1 (mixture of isomers) [LCB-1021, 1-(4,5-Bis-hydroxymethyl-4-methyl-tetrahydro-furan-2-yl)-6-methyl-1H-pyrimidine-2,4-dione]",> 500,> 500,> 500,> 500,<0.1 10^6 μmol/min mg,2.2 10^−3 μmol/min mg,> 500,> 500,> 500,–,–,–,–,–,–,–,–,–,–
"COC(=O)C1(C)C[C@H](n2cc(F)c(=O)[nH]c2=O)O[C@@H]1CO (mixture of isomers) [LCB-1022, 5-(5-Fluoro-2,4-dioxo-3,4-dihydro-2H-pyrimidin-1-yl)-2-hydroxymethyl-3-methyl-tetrahydro-furan-3-carboxylic acid methyl ester]",–,–,–,–,–,–,> 500,–,–,–,–,–,–,1.88 10^6 μmol/min mg,3 10^−3 μmol/min mg,–,–,–,–
"CCOC(=O)[C@@H]1O[C@H](n2cc(F)c(=O)[nH]c2=O)CC1(C)C(=O)OCC (stereo in doubt) [LCB-1024, (2R,5S)-diethyl5-(5-fluoro-2,4-dioxo-3,4-dihydropyrimidin-1(2H)-yl)-3-methyltetrahydrofuran-2,3-dicarboxylate]",> 460,190,> 460,> 460,<0.1 10^6 μmol/min mg,4.2 10^−3 μmol/min mg,> 460,> 460,> 460,–,–,–,–,–,–,–,–,–,–
"COC(=O)C1(C)C[C@H](n2cc(F)c(=O)[nH]c2=O)O[C@@H]1CO (mixture of isomers) [LCB-1015, 5-(5-Fluoro-2,4-dioxo-3,4-dihydro-2H-pyrimidin-1-yl)-2-hydroxymethyl-3-methyl-tetrahydro-furan-3-carboxylic acid methyl ester]",> 500,380,> 500,420,–,–,–,> 500,> 500,> 500,> 500,–,–,–,–,<0.1 10^6 μmol/min mg,<1 10^−3 μmol/min mg,–,–
"CCOC(=O)[C@@H]1O[C@H](n2ccc(=O)[nH]c2=O)CC1(C)C(=O)OCC (stereo partly drawn) [LCB-1025, (2R,5S)-diethyl 5-(2,4-dioxo-3,4-dihydropyrimidin-1(2H)-yl)-3-methyltetrahydrofuran-2,3-dicarboxylate]",> 460,> 460,> 460,> 460,<0.1 10^6 μmol/min mg,<1 10^−3 μmol/min mg,> 460,> 460,> 460,–,–,–,–,–,–,–,–,–,–
"COC(=O)C1(C)CC(n2cc(C)c(=O)[nH]c2=O)OC1CO (racemic) [LCB-1010, (±) methyl 2-(hydroxymethyl)-3-methyl-5-(5-methyl-2,4-dioxo-3,4-dihydropyrimidin-1(2H)-yl)tetrahydrofuran-3-carboxylate]",> 500,> 500,> 500,180,–,–,–,> 500,> 500,> 500,> 500,–,–,–,–,–,–,2.84 10^6 μmol/min mg,6 10^−3 μmol/min mg
